Test results: patent US20260062422A1 (Halda Therapeutics OpCo, Inc., priority 2022, published 2026)

Molecular target: T1, androgen receptor (Homo sapiens, UniProt P10275)
T1 sequence (P10275 1-920 T878A): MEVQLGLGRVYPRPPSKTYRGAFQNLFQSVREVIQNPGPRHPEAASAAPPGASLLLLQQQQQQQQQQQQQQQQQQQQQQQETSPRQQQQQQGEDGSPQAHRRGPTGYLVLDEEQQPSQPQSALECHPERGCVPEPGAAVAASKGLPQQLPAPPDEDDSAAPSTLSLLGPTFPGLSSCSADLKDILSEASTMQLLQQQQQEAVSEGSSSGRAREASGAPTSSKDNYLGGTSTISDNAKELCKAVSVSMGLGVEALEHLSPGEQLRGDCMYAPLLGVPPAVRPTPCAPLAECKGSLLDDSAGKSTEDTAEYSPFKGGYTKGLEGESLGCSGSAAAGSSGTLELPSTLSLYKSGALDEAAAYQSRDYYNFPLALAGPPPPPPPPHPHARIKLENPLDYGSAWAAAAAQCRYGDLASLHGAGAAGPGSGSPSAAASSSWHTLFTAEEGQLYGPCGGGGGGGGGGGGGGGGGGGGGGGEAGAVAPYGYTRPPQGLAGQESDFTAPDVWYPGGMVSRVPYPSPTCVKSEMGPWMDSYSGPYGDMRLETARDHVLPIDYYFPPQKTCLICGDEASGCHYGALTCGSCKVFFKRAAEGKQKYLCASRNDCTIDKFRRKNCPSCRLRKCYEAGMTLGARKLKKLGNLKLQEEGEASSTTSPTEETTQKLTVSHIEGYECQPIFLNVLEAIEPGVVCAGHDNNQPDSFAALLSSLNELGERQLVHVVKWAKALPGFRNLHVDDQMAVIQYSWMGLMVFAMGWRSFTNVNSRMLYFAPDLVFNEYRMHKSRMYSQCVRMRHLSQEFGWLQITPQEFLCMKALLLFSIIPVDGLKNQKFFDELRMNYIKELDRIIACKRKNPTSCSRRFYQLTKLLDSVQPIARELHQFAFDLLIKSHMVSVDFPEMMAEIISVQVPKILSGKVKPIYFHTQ
Test: Assay for binding affinity to androgen receptor ([3H]methyltrienolone radioligand, cell cytosol)
Settings: 1 nM [3H]methyltrienolone, 24 hours at 4° C., Table 5
Procedure: Fractions of cell cytosol ([…] cell/point) were incubated for 24 hours at 4° C. with 1 nM [^3H]methyltrienolone in the absence or presence of the test compound in a buffer containing 25 mM Hepes-Tris (pH 7.4), 1 mM EDTA, 10 mM Na2MoO4, 2 mM DTT, 5 μM triamcinolone acetonide, and 10% glycerol. Nonspecific binding was determined in the presence of 1 μM testosterone. Following incubation, the samples were filtered rapidly under vacuum through glass fiber filters (GF/B, Packard) presoaked with 0.3% PEI and rinsed several times with ice-cold 50 mM Tris-HCl using a 96-sample cell harvester (Unifilter, Packard). The filters were dried then counted for radioactivity in a scintillation counter (Topcount, Packard) using a scintillation cocktail (Microscint 0, Packard). The results are expressed as a percent inhibition of the control radioligand specific binding. The standard reference compound is testosterone, which is tested in each experiment at several concentrations to obtain a competition curve from which its IC50 is calculated.

| SMILES | Kd [nM] |
| --- | --- |
| Cc1sc2c(c1C)C(c1ccc(Cl)cc1)=N[C@@H](CC(=O)NCCN(C)c1ncc(C(=O)N[C@H]3C(C)(C)[C@H](Oc4ccc(C#N)c(Cl)c4)C3(C)C)cn1)c1nnc(C)n1-2 [Compound I-1, N-[3-(3-chloro-4-cyano-phenoxy)-2,2,4,4-tetramethyl-cyclobutyl]-2-[2-[[2-[(9S)-7-(4-chlorophenyl)-4,5,13-trimethyl-3-thia-1,8,11,12-tetrazatricyclo[8.3.0.02,6]trideca-2(6),4,7,10,12-pentaen-9-yl]acetyl]amino]ethyl-methyl-amino]pyrimidine-5-carboxamide] | < 50 |
| Cc1sc2c(c1C)C(c1ccc(Cl)cc1)=N[C@@H](CC(=O)NCCCN1CCN(CCCN(C)c3ncc(C(=O)N[C@H]4C(C)(C)[C@H](Oc5ccc(C#N)c(Cl)c5)C4(C)C)cn3)CC1)c1nnc(C)n1-2 [Compound I-5, N-((1r,3r)-3-(3-chloro-4-cyanophenoxy)-2,2,4,4-tetramethylcyclobutyl)-2-((3-(4-(3-(2-((S)-4-(4-chlorophenyl)-2,3,9-trimethyl-6H-thieno[3,2-f][1,2,4]triazolo[4,3-a][1,4]diazepin-6-yl)acetamido)propyl)piperazin-1-yl)propyl)(methyl)amino)pyrimidine-5-carboxamide] | < 50 |
| Cc1sc2c(c1C)C(c1ccc(Cl)cc1)=N[C@@H](CC(=O)NCCCN1CCN(CCCOC3CCN(c4ncc(C(=O)N[C@H]5C(C)(C)[C@H](Oc6ccc(C#N)c(Cl)c6)C5(C)C)cn4)CC3)CC1)c1nnc(C)n1-2 [Compound I-10] | < 50 |
| Cc1sc2c(c1C)C(c1ccc(Cl)cc1)=N[C@@H](CC(=O)NCCOCCOCCOCC1CN(c3ncc(C(=O)N[C@H]4C(C)(C)[C@H](Oc5ccc(C#N)c(Cl)c5)C4(C)C)cn3)C1)c1nnc(C)n1-2 [Compound I-18] | < 50 |
| Cc1sc2c(c1C)C(c1ccc(Cl)cc1)=N[C@@H](CC(=O)NCCCCCCCOC1CCN(c3ncc(C(=O)N[C@H]4C(C)(C)[C@H](Oc5ccc(C#N)c(Cl)c5)C4(C)C)cn3)CC1)c1nnc(C)n1-2 [Compound I-24] | < 50 |
| Cc1sc2c(c1C)C(c1ccc(Cl)cc1)=N[C@@H](CC(=O)NCCCCOCCOC1CCN(c3ncc(C(=O)N[C@H]4C(C)(C)[C@H](Oc5ccc(C#N)c(Cl)c5)C4(C)C)cn3)CC1)c1nnc(C)n1-2 [Compound I-28] | < 50 |
| Cc1sc2c(c1C)C(c1ccc(Cl)cc1)=N[C@@H](CC(=O)NCCCN1CCN(CC3CCN(c4ncc(C(=O)N[C@H]5C(C)(C)[C@H](Oc6ccc(C#N)c(Cl)c6)C5(C)C)cn4)CC3)CC1)c1nnc(C)n1-2 [Compound I-36, N-((1r,3r)-3-(3-chloro-4-cyanophenoxy)-2,2,4,4-tetramethylcyclobutyl)-2-(4-((4-(3-(2-((S)-4-(4-chlorophenyl)-2,3,9-trimethyl-6H-thieno[3,2-f][1,2,4]triazolo[4,3-a][1,4]diazepin-6-yl)acetamido)propyl)piperazin-1-yl)methyl)piperidin-1-yl)pyrimidine-5-carboxamide] | < 50 |
| Cc1sc2c(c1C)C(c1ccc(OCCOCCOC3CCN(c4ncc(C(=O)N[C@H]5C(C)(C)[C@H](Oc6ccc(C#N)c(Cl)c6)C5(C)C)cn4)CC3)cc1)=N[C@@H](CC(=O)O)c1nnc(C)n1-2 [Compound I-39] | < 50 |
| Cc1sc2c(c1C)C(c1ccc(OCCOCCOCCOC3CCN(c4ncc(C(=O)N[C@H]5C(C)(C)[C@H](Oc6ccc(C#N)c(Cl)c6)C5(C)C)cn4)CC3)cc1)=N[C@@H](CC(=O)O)c1nnc(C)n1-2 [Compound I-40] | < 50 |
| Cc1sc2c(c1C)C(c1cccc(OCCOCCOC3CCN(c4ncc(C(=O)N[C@H]5C(C)(C)[C@H](Oc6ccc(C#N)c(Cl)c6)C5(C)C)cn4)CC3)c1)=N[C@@H](CC(=O)O)c1nnc(C)n1-2 [Compound I-42] | < 50 |
| Cc1sc2c(c1C)C(c1cccc(OCCOCCOCCOC3CCN(c4ncc(C(=O)N[C@H]5C(C)(C)[C@H](Oc6ccc(C#N)c(Cl)c6)C5(C)C)cn4)CC3)c1)=N[C@@H](CC(=O)O)c1nnc(C)n1-2 [Compound I-43] | < 50 |
| CCNC(=O)C[C@@H]1N=C(c2ccc(OCCOCCOCCOC3CCN(c4ncc(C(=O)N[C@H]5C(C)(C)[C@H](Oc6ccc(C#N)c(Cl)c6)C5(C)C)cn4)CC3)cc2)c2c(sc(C)c2C)-n2c(C)nnc21 [Compound I-45, N-((1r,3r)-3-(3-chloro-4-cyanophenoxy)-2,2,4,4-tetramethylcyclobutyl)-2-(4-(2-(2-(2-(4-((S)-6-(2-(ethylamino)-2-oxoethyl)-2,3,9-trimethyl-6H-thieno[3,2-f][1,2,4]triazolo[4,3-a][1,4]diazepin-4-yl)phenoxy)ethoxy)ethoxy)ethoxy)piperidin-1-yl)pyrimidine-5-carboxamide] | < 50 |
| CCNC(=O)C[C@@H]1N=C(c2cccc(OCCOCCOC3CCN(c4ncc(C(=O)N[C@H]5C(C)(C)[C@H](Oc6ccc(C#N)c(Cl)c6)C5(C)C)cn4)CC3)c2)c2c(sc(C)c2C)-n2c(C)nnc21 [Compound I-47, N-((1r,3r)-3-(3-chloro-4-cyanophenoxy)-2,2,4,4-tetramethylcyclobutyl)-2-(4-(2-(2-(3-((S)-6-(2-(ethylamino)-2-oxoethyl)-2,3,9-trimethyl-6H-thieno[3,2-f][1,2,4]triazolo[4,3-a][1,4]diazepin-4-yl)phenoxy)ethoxy)ethoxy)piperidin-1-yl)pyrimidine-5-carboxamide] | < 50 |
| CCNC(=O)C[C@@H]1N=C(c2ccc(OCC3CN(c4ncc(C(=O)N[C@H]5C(C)(C)[C@H](Oc6ccc(C#N)c(Cl)c6)C5(C)C)cn4)C3)cc2)c2c(sc(C)c2C)-n2c(C)nnc21 [Compound I-71] | < 50 |

Continued, values first:

| Kd [nM] | SMILES |
| --- | --- |
| < 50 | CCNC(=O)C[C@@H]1N=C(c2ccc(OCCCN(C)c3ncc(C(=O)N[C@H]4C(C)(C)[C@H](Oc5ccc(C#N)c(Cl)c5)C4(C)C)cn3)cc2)c2c(sc(C)c2C)-n2c(C)nnc21 [Compound I-81] |
| < 50 | CCNC(=O)C[C@@H]1N=C(c2ccc(OCCCCc3ncc(C(=O)N[C@H]4C(C)(C)[C@H](Oc5ccc(C#N)c(Cl)c5)C4(C)C)cn3)cc2)c2c(sc(C)c2C)-n2c(C)nnc21 [Compound I-86] |
| < 50 | CCNC(=O)C[C@@H]1N=C(c2ccc(N3CCC(OC4CCN(c5ncc(C(=O)N[C@H]6C(C)(C)[C@H](Oc7ccc(C#N)c(Cl)c7)C6(C)C)cn5)CC4)CC3)cc2)c2c(sc(C)c2C)-n2c(C)nnc21 [Compound I-114] |
| < 50 | CCNC(=O)C[C@@H]1N=C(c2ccc(N3CC(N(C)C4CN(c5ncc(C(=O)N[C@H]6C(C)(C)[C@H](Oc7ccc(C#N)c(Cl)c7)C6(C)C)cn5)C4)C3)cc2)c2c(sc(C)c2C)-n2c(C)nnc21 [Compound I-121] |
| < 50 | CCNC(=O)C[C@@H]1N=C(c2ccc(N3CCC(N(C)C4CN(c5ncc(C(=O)N[C@H]6C(C)(C)[C@H](Oc7ccc(C#N)c(Cl)c7)C6(C)C)cn5)C4)CC3)cc2)c2c(sc(C)c2C)-n2c(C)nnc21 [Compound I-123] |
| < 50 | CCNC(=O)C[C@@H]1N=C(c2ccc(N3CCC(CN4CC(Oc5ncc(C(=O)N[C@H]6C(C)(C)[C@H](Oc7ccc(C#N)c(Cl)c7)C6(C)C)cn5)C4)CC3)cc2)c2c(sc(C)c2C)-n2c(C)nnc21 [Compound I-124] |
| < 50 | Cc1sc2c(c1C)C(c1ccc(CC3CC4(CCN(c5ncc(C(=O)N[C@H]6C(C)(C)[C@H](Oc7ccc(C#N)c(Cl)c7)C6(C)C)cn5)CC4)C3)cc1)=N[C@@H](C)c1nnc(C)n1-2 [Compound I-303] |
